Results reported in patent US11345681B1, “Inhibitors of fibroblast growth factor receptor kinases” (Kinnate Biopharma Inc., priority 2020, dated 2022).
Where two headings read alike, the source gives them in different places.

Molecular target: Wild type FGFR2 (Homo sapiens (Human), UniProt P21802)
Experiment: FGFR2 kinase assay (fluorescence-based microfluidic mobility shift assay)
Format: biochemical
[1] = wild type FGFR2 0.06 nM, 100 μM ATP, 80 minutes at room temperature, class symbols

Wild type FGFR2, sequence (P21802 22-821): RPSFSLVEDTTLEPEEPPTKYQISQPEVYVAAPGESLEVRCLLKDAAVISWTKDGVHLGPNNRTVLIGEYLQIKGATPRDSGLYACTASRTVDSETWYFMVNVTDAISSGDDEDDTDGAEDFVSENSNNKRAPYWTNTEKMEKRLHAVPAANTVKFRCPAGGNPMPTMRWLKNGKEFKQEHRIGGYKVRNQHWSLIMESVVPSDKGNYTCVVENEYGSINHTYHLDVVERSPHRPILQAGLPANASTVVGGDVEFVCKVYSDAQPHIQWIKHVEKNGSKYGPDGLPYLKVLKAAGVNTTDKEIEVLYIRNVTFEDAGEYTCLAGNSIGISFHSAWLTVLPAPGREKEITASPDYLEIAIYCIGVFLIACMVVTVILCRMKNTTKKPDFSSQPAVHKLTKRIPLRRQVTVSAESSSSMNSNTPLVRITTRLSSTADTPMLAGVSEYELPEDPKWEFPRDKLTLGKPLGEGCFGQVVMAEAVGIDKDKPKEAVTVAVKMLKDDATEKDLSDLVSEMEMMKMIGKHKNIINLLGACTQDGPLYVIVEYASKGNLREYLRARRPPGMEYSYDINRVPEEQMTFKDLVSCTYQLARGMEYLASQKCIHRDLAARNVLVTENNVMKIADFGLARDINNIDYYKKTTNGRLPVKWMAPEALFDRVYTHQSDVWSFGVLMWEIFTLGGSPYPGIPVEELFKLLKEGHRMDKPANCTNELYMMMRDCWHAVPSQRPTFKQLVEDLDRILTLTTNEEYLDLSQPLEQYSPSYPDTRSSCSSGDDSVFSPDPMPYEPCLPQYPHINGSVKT

IC50 [1]	SMILES	IC50
≤ 100 nM	C=CC(=O)N1C[C@@H](n2nc(C#Cc3cc4ncn(CC)c4cc3Cl)c(C(N)=O)c2N)C[C@@H]1CO [Example 194, 5-Amino-3-[2-(6-chloro-1-ethyl-1,3-benzodiazol-5-yl)ethynyl]-1-[(3S,5R)-5-(hydroxymethyl)-1-(prop-2-enoyl)pyrrolidin-3-yl]pyrazole-4-carboxamide]	–
≤ 100 nM	C=CC(=O)N1C[C@@H](n2nc(C#Cc3cc4ncn(CC)c4cc3Cl)c(C(N)=O)c2N)C[C@@H]1COC [Example 196, 5-Amino-3-[2-(6-chloro-1-ethyl-1,3-benzodiazol-5-yl)ethynyl]-1-[(3S,5R)-5-(methoxymethyl)-1-(prop-2-enoyl)pyrrolidin-3-yl]pyrazole-4-carboxamide]	–
–	C#CC(=O)N1C[C@@H](n2nc(C#Cc3cc4ncn(C5CC5)c4cc3F)c(C(N)=O)c2NC)C[C@@H]1CO [Example 198, 3-[2-(1-Cyclopropyl-6-fluoro-1,3-benzodiazol-5-yl)ethynyl]-1-[(3S,5R)-5-(hydroxymethyl)-1-(prop-2-ynoyl)pyrrolidin-3-yl]-5-(methylamino)pyrazole-4-carboxamide]	< 100 nM
≤ 100 nM	C=CC(=O)N1C[C@@H](n2nc(C#Cc3cc4ncn(C5CC5)c4cc3Cl)c(C(N)=O)c2N)C[C@@H]1CO [Example 199, 5-Amino-3-[2-(6-chloro-1-cyclopropyl-1,3-benzodiazol-5-yl)ethynyl]-1-[(3S,5R)-5-(hydroxymethyl)-1-(prop-2-enoyl)pyrrolidin-3-yl]pyrazole-4-carboxamide]	–
≤ 100 nM	C=CC(=O)N1C[C@@H](n2nc(C#Cc3cc4ncn(C5CC5)c4cc3Cl)c(C(N)=O)c2N)C[C@@H]1COC [Example 200, 5-Amino-3-[2-(6-chloro-1-cyclopropyl-1,3-benzodiazol-5-yl)ethynyl]-1-[(3S,5R)-5-(methoxymethyl)-1-(prop-2-enoyl)pyrrolidin-3-yl]pyrazole-4-carboxamide]	–
≤ 100 nM	C=CC(=O)N1C[C@@H](n2nc(C#Cc3c(F)cc4c(ncn4C4CC4)c3F)c(C(N)=O)c2N)C[C@@H]1CO [Example 201, 5-Amino-3-[2-(1-cyclopropyl-4,6-difluoro-1,3-benzodiazol-5-yl)ethynyl]-[(3S,5R)-5-(hydroxymethyl)-1-(prop-2-enoyl)pyrrolidin-3-yl]pyrazole-4-carboxamide]	–
≤ 100 nM	C=CC(=O)N1CC(n2nc(C#Cc3cc4ncn(C5CC5)c4cc3F)c(C(N)=O)c2N)C1 [Example 202, 5-Amino-3-[2-(1-cyclopropyl-6-fluoro-1,3-benzodiazol-5-yl)ethynyl]-1-[1-(prop-2-enoyl)azetidin-3-yl]pyrazole-4-carboxamide]	–
≤ 100 nM	CNc1c(C(N)=O)c(C#Cc2cc3ncn(C4CC4)c3cc2F)nn1[C@H]1C[C@H](COC)N(C(=O)C#CC(C)(C)O)C1 [Example 203, 3-((1-Cyclopropyl-6-fluoro-1H-benzo[d]imidazol-5-yl)ethynyl)-1-((3S,5R)-1-(4-hydroxy-4-methylpent-2-ynoyl)-5-(methoxymethyl)pyrrolidin-3-yl)-5-(methylamino)-1H-pyrazole-4-carboxamide]	–
100 to 1000 nM	CNc1c(C(N)=O)c(C#Cc2cc3ncn(C4CC4)c3cc2F)nn1C1CN(C(=O)/C=C/CN(C)C)C1 [Example 204, 3-[2-(1-Cyclopropyl-6-fluoro-1,3-benzodiazol-5-yl)ethynyl]-1-{1-[(2E)-4-(dimethylamino)but-2-enoyl]azetidin-3-yl}-5-(methylamino)pyrazole-4-carboxamide]	–
≤ 100 nM	C=CC(=O)N1C[C@@H](n2nc(C#Cc3cc4ncn(C5CC5)c4cc3F)c(C(N)=O)c2NCC)C[C@@H]1COC [Example 205, 1-((3S,5R)-1-Acryloyl-5-(methoxymethyl)pyrrolidin-3-yl)-3-((1-cyclopropyl-6-fluoro-1H-benzo[d]imidazol-5-yl)ethynyl)-5-(ethylamino)-1H-pyrazole-4-carboxamide]	–
≤ 100 nM	C=CC(=O)N1C[C@@H](n2nc(C#Cc3cc4nc(C)n(C5CC5)c4cc3F)c(C(N)=O)c2N)C[C@@H]1COC [Example 206, 5-Amino-3-[2-(1-cyclopropyl-6-fluoro-2-methyl-1,3-benzodiazol-5-yl)ethynyl]-1-[(3S,5R)-5-(methoxymethyl)-1-(prop-2-enoyl)pyrrolidin-3-yl]pyrazole-4-carboxamide]	–
≤ 100 nM	C=CC(=O)N1C[C@@H](n2nc(C#Cc3cc4ncn(C5CC5)c4cc3F)c(C(N)=O)c2N)C[C@@H]1CO [Example 207, 5-Amino-3-[2-(1-cyclopropyl-6-fluoro-1,3-benzodiazol-5-yl)ethynyl]-1-[(3S,5R)-5-(hydroxymethyl)-1-(prop-2-enoyl)pyrrolidin-3-yl]pyrazole-4-carboxamide]	–
≤ 100 nM	C=CC(=O)N1CC(n2nc(C#Cc3cc4ncn(C5CC5)c4cc3Cl)c(C(N)=O)c2N)C1 [Example 208, 5-Amino-3-[2-(6-chloro-1-cyclopropyl-1,3-benzodiazol-5-yl)ethynyl]-1-[1-(prop-2-enoyl)azetidin-3-yl]pyrazole-4-carboxamide]	–
≤ 100 nM	C=CC(=O)N1CC(n2nc(C#Cc3cc4ncn(CC)c4cc3Cl)c(C(N)=O)c2N)C1 [Example 209, 5-Amino-3-[2-(6-chloro-1-ethyl-1,3-benzodiazol-5-yl)ethynyl]-1-[1-(prop-2-enoyl)azetidin-3-yl]pyrazole-4-carboxamide]	–
≤ 100 nM	C=CC(=O)N1CC(n2nc(C#Cc3c(F)cc4c(ncn4C4CC4)c3F)c(C(N)=O)c2N)C1 [Example 210, 5-Amino-3-[2-(1-cyclopropyl-4,6-difluoro-1,3-benzodiazol-5-yl)ethynyl]-1-[1-(prop-2-enoyl)azetidin-3-yl]pyrazole-4-carboxamide]	–
≤ 100 nM	C=CC(=O)N1C[C@@H](n2nc(C#Cc3cc4ncn(C5CC5)c4cc3F)c(C(N)=O)c2N)C[C@@H]1COC(F)F [Example 211, 5-Amino-3-[2-(1-cyclopropyl-6-fluoro-1,3-benzodiazol-5-yl)ethynyl]-1-[(3S,5R)-5-[(difluoromethoxy)methyl]-1-(prop-2-enoyl)pyrrolidin-3-yl]pyrazole-4-carboxamide]	–
≤ 100 nM	C=CC(=O)N1C[C@@H](n2nc(C#Cc3ccc4c(c3)ncn4C3CC3)c(C(N)=O)c2N)C[C@@H]1COC(F)F [Example 212, 5-Amino-3-[2-(1-cyclopropyl-1,3-benzodiazol-5-yl)ethynyl]-1-[(3S,5R)-5-[(difluoromethoxy)methyl]-1-(prop-2-enoyl)pyrrolidin-3-yl]pyrazole-4-carboxamide]	–
≤ 100 nM	C=CC(=O)N1C[C@@H](n2nc(C#Cc3cc4nc(C)n(C5CC5)c4cc3Cl)c(C(N)=O)c2N)C[C@@H]1COC [Example 214, 5-Amino-3-[2-(6-chloro-1-cyclopropyl-2-methyl-1,3-benzodiazol-5-yl)ethynyl]-1-[(3S,5R)-5-(methoxymethyl)-1-(prop-2-enoyl)pyrrolidin-3-yl]pyrazole-4-carboxamide]	–
≤ 100 nM	C=CC(=O)N1C[C@@H](n2nc(C#Cc3c(F)cc4c(ncn4C4CC4)c3F)c(C(N)=O)c2N)C[C@@H]1COC(F)F [Example 215, 5-Amino-3-[2-(1-cyclopropyl-4,6-difluoro-1,3-benzodiazol-5-yl)ethynyl]-1-[(3S,5R)-5-[(difluoromethoxy)methyl]-1-(prop-2-enoyl)pyrrolidin-3-yl]pyrazole-4-carboxamide]	–
≤ 100 nM	C=CC(=O)N1C[C@@H](n2nc(C#Cc3cc4nc(C)n(C5CC5)c4cc3Cl)c(C(N)=O)c2NC)C[C@@H]1[C@@H](C)O [Example 220, 1-((3S,5R)-1-Acryloyl-5-((R)-1-hydroxyethyl)pyrrolidin-3-yl)-3-((6-chloro-1-cyclopropyl-2-methyl-1H-benzo[d]imidazol-5-yl)ethynyl)-5-(methylamino)-1H-pyrazole-4-carboxamide]	–
≤ 100 nM	C=CC(=O)N1C[C@@H](n2nc(C#Cc3cc4nc(C)n(C5CC5)c4cc3Cl)c(C(N)=O)c2NC)C[C@@H]1[C@H](C)O [Example 221, 1-((3S,5R)-1-Acryloyl-5-((S)-1-hydroxyethyl)pyrrolidin-3-yl)-3-((6-chloro-1-cyclopropyl-2-methyl-1H-benzo[d]imidazol-5-yl)ethynyl)-5-(methylamino)-1H-pyrazole-4-carboxamide]	–
≤ 100 nM	C=CC(=O)N1C[C@@H](n2nc(C#Cc3cc4nc(C)n(C5CC5)c4cc3F)c(C(N)=O)c2NC)C[C@@H]1[C@@H](C)O [Example 224, 3-[2-(1-Cyclopropyl-6-fluoro-2-methyl-1,3-benzodiazol-5-yl)ethynyl]-1-[(3S,5R)-5-[(1R)-1-hydroxyethyl]-1-(prop-2-enoyl)pyrrolidin-3-yl]-5-(methylamino)pyrazole-4-carboxamide]	–
≤ 100 nM	C=CC(=O)N1C[C@@H](n2nc(C#Cc3cc4nc(C)n(C5CC5)c4cc3F)c(C(N)=O)c2NC)C[C@@H]1[C@H](C)O [Example 225, 3-[2-(1-Cyclopropyl-6-fluoro-2-methyl-1,3-benzodiazol-5-yl)ethynyl]-1-[(3S,5R)-5-[(1S)-1-hydroxyethyl]-1-(prop-2-enoyl)pyrrolidin-3-yl]-5-(methylamino)pyrazole-4-carboxamide]	–

SMILES	IC50 [1]	IC50
C=CC(=O)N1CC(n2nc(C#Cc3c(F)cc4c(ncn4C4CC4)c3F)c(C(N)=O)c2NC)C1 [Example 193, 3-[2-(1-Cyclopropyl-4,6-difluoro-1,3-benzodiazol-5-yl)ethynyl]-5-(methylamino)-1-[1-(prop-2-enoyl)azetidin-3-yl]pyrazole-4-carboxamide]	≤ 100 nM	–
C=CC(=O)N1C[C@@H](n2nc(C#Cc3cc4ncn(C5CC5)c4cc3Cl)c(C(N)=O)c2NC)C[C@@H]1[C@@H](C)O [Example 222, 3-[2-(6-Chloro-1-cyclopropyl-1,3-benzodiazol-5-yl)ethynyl]-1-[(3S,5R)-5-[(1R)-1-hydroxyethyl]-1-(prop-2-enoyl)pyrrolidin-3-yl]-5-(methylamino)pyrazole-4-carboxamide]	≤ 100 nM	–
C=CC(=O)N1C[C@@H](n2nc(C#Cc3cc4ncn(C5CC5)c4cc3Cl)c(C(N)=O)c2NC)C[C@@H]1[C@H](C)O [Example 223, 3-[2-(6-chloro-1-cyclopropyl-1,3-benzodiazol-5-yl)ethynyl]-1-[(3S,5R)-5-[(1S)-1-hydroxyethyl]-1-(prop-2-enoyl)pyrrolidin-3-yl]-5-(methylamino)pyrazole-4-carboxamide]	≤ 100 nM	–
